Data published in patent EP4725957A1, “GROUP OF CYCLIC ALKALINE LIPOPEPTIDE COMPOUNDS, AND PREPARATION METHOD THEREFOR AND USE THEREOF” (Institute of Medicinal Biotechnology, Chinese Academy of …, priority 2023, dated 2024).
Converted amounts (≈) assume the structure as drawn. Bridge positions count the residues as written; N and C are the ends. Square brackets hold non-standard residues; d marks the D form. Peptide text beside a SMILES is read from it. * marks the point of attachment. Heptanoyl(6-Me) = CC(C)CCCCC(=O)*; Nonanoyl = CCCCCCCCC(=O)*; X1 = CC[C@H](C)CCCCC(=O)*; dDab = NCC[C@@H](N)C(=O)O; Heptanoyl = CCCCCCC(=O)*; Octanoyl = CCCCCCCC(=O)*; Dab = NCC[C@H](N)C(=O)O; Dap = NC[C@H](N)C(=O)O

Experiments:
Type in all cases: cell-based
[1] = test system: Acinetobacter baumannii ABA19-1; conditions: ABA19-1
Experimental: (§1) The minimal inhibitory concentration (MIC) was determined by the broth microdilution method according to the recommended procedures of the Clinical and Laboratory Standards Institute (CLSI).
(§2) An appropriate amount of the cyclic lipopeptide compounds prepared in Examples 1-120 and the reference standards were weighed and dissolved in sterile pure water. An appropriate volume of the mother solution was subjected to ten-fold dilution with sterile Mueller-Hinton (MH) broth to a concentration of 0.256 mg/mL. Half of the drug solution was aliquoted into 96-well reagent reservoirs, while the other half was subjected to two-fold serial dilution with sterile MH broth before being transferred into deep-well reagent reservoirs. The above steps were repeated, so that the drug concentrations in the reagent reservoirs were adjusted to 128, 64, 32, 16, 8, 4, 2, 1, 0.5, 0.25, 0.125 and 0.06 mg/L in sequence, and all solutions were prepared and used immediately. Several colonies were picked from agar plates cultured for 18-24 h and directly suspended in sterile normal saline, and the concentration of the bacterial suspension was adjusted to 0.5 McFarland units. The calibrated bacterial suspension was diluted with MH broth to a concentration of (4-8) × 10^5 colony-forming units per milliliter (CFU/mL) and prepared and used immediately. A volume of 100 µL of the aforementioned compounds of the present disclosure (e.g., the compounds prepared in the examples) and reference solutions at different concentrations was separately pipetted into wells 1 to 12 of sterile 96-well polystyrene plates, and an additional 100 µL of the aforementioned inoculum was added to each well. The final concentrations of the samples in the wells were adjusted to 64, 32, 16, 8, 4, 2, 1, 0.5, 0.25, 0.125, 0.06 and 0.03 mg/L, respectively, and the final concentration of the inoculum in each well was (2-4) × 10^5 CFU/mL. Additional growth control wells were set up, each containing 100 µL of the inoculum and 100 µL of sterile MH broth. The test substances and inocula in all wells were mixed thoroughly and then sealed. The inoculated 96-well plates were incubated in an incubator at 35-37°C for 16-20 h.
(§3) The strains used for the antibacterial activity assay were obtained from the American Type Culture Collection (ATCC) and clinical isolates.
(§4) The strains employed for the antibacterial activity assay included Escherichia coli ATCC BAA-2523, ATCC BAA-2340 (KPC), Klebsiella pneumoniae KPN+19-15, ATCC BAA-1705 (KPC), Pseudomonas aeruginosa PAE19-3, ATCC 27853, Acinetobacter baumannii ABA19-1, and NCTC 13304 (OXA-27).

[2] = test system: Acinetobacter baumannii NCTC 13304 (OXA-27); conditions: NCTC 13304
Experimental: as §1, §2, §3, §4

[3] = test system: Escherichia coli ATCC BAA-2340 (KPC); conditions: ATCC BAA-2340
Experimental: as §1, §2, §3, §4

[4] = test system: Escherichia coli ATCC BAA-2523; conditions: ATCC BAA-2523
Experimental: as §1, §2, §3, §4

[5] = test system: Klebsiella pneumoniae ATCC BAA-1705 (KPC); conditions: ATCC BAA-1705
Experimental: as §1, §2, §3, §4

[6] = test system: Klebsiella pneumoniae KPN+19-15; conditions: KPN+19-15
Experimental: as §1, §2, §3, §4

[7] = test system: Pseudomonas aeruginosa ATCC 27853; conditions: ATCC 27853
Experimental: as §1, §2, §3, §4

[8] = test system: Pseudomonas aeruginosa PAE19-3; conditions: PAE19-3
Experimental: as §1, §2, §3, §4

[9] = Nephrotoxicity assay: in vitro cytotoxicity of HK-2 cells by CCK-8 assay; conditions: human, HK-2 cells (human renal), 72 h incubation with drug-containing medium
Experimental: In vitro cytotoxicity detection of HK-2 cells was performed by the CCK-8 assay.
The culture medium for human renal HK-2 cells was a complete RPMI-1640 medium (Invitrogen) supplemented with 10% fetal bovine serum (FBS, Gibco). The cryopreservation solution was composed of 90% FBS and 10% dimethyl sulfoxide (DMSO), and the cells were preserved long-term in liquid nitrogen. Cells were cultured in a sterile incubator with a humidified atmosphere containing 5% CO2 at 37°C. When the cell density reached 70%-80%, cell digestion and subculture were conducted. The cyclic lipopeptide compounds prepared in Examples 1-120 were weighed and dissolved in sterile water to prepare a mother solution with a concentration of 1 mg/mL. Drug-containing culture media were then formulated, with the final concentrations set as 500, 250, 200, 100, 50, 25, and 12.5 µg/mL, respectively. Cells were adjusted to a density of 5 × 10^4 cells/mL and seeded into 96-well plates, with 100 µL of cell suspension added to each well. After stable incubation for 24 h, the original medium was replaced with the prepared drug-containing medium, and the plates were incubated in the incubator for an additional 72 h. The medium was gently aspirated, and 100 µL of blank medium containing 10% CCK-8 was added to each well. After incubation in the incubator for 3 h, the optical density (OD) values at 450 nm were measured using a BIOTEK microplate reader. The experiment was repeated three times. For each replicate, polymyxin B was set as the positive drug, and a drug-free blank group was established as the control. The cell viability (%) was calculated by the formula: Cell viability (%) = [(OD of drug-treated group - OD of zero-setting) / (OD of drug-free group - OD of zero-setting)] × 100%. The half-maximal inhibitory concentration (IC50) values were calculated through logarithmic regression analysis.
The cells used for the nephrotoxicity assay were obtained from the ATCC ( American Type Culture Collection). The Cell Counting Kit-8 (CCK-8) used in the assay was supplied by Beyotime Biotechnology Co., Ltd.

Compound | MIC [1] [µg/mL] | MIC [2] [µg/mL] | MIC [3] [µg/mL] | MIC [4] [µg/mL] | MIC [5] [µg/mL] | MIC [6] [µg/mL] | MIC [7] [µg/mL] | MIC [8] [µg/mL] | IC50 at 72 h [9] [µg/mL]
CCCCCCCC(=O)N[C@@H](CCN)C(=O)N[C@H](C(=O)N[C@@H](CN)C(=O)N[C@H]1CCNC(=O)[C@H]([C@@H](C)O)NC(=O)[C@H](CCN)NC(=O)[C@H](CCN)NC(=O)[C@H]([C@@H](C)O)NC(=O)[C@@H](Cc2ccccc2)NC(=O)[C@H](CCN)NC1=O)[C@@H](C)O [Compound 8, Octanoyl-Dab-Thr-Dap-ring(4-10)[Dab-Dab-D-Phe-Thr-Dab-Dab-Thr]] (Octanoyl-[Dab]T[Dap][Dab][Dab][dF]T[Dab][Dab]T; lactam 4-C) | ≤0.03 | ≤0.03 | ≤0.03 | ≤0.03 | ≤0.03 | ≤0.03 | 0.125 (≈ 0.107 µM) | 0.25 (≈ 0.215 µM) | > 500
CCCCCCC(=O)N[C@@H](CCN)C(=O)N[C@H](C(=O)N[C@@H](CN)C(=O)N[C@H]1CCNC(=O)[C@H]([C@@H](C)O)NC(=O)[C@H](CCN)NC(=O)[C@H](CCN)NC(=O)[C@H]([C@@H](C)O)NC(=O)[C@@H](Cc2ccccc2)NC(=O)[C@H](CCN)NC1=O)[C@@H](C)O [Compound 9, Heptanoyl-Dab-Thr-Dap-ring(4-10)[Dab-Dab-D-Phe-Thr-Dab-Dab-Thr]] (Heptanoyl-[Dab]T[Dap][Dab][Dab][dF]T[Dab][Dab]T; lactam 4-C) | 0.03 (≈ 0.0261 µM) | 0.03 (≈ 0.0261 µM) | 0.03 (≈ 0.0261 µM) | 0.03 (≈ 0.0261 µM) | 0.03 (≈ 0.0261 µM) | 0.03 (≈ 0.0261 µM) | 0.125 (≈ 0.109 µM) | 0.25 (≈ 0.218 µM) | > 500
CCCCCCCCC(=O)N[C@@H](CCN)C(=O)N[C@H](C(=O)N[C@@H](CN)C(=O)N[C@H]1CCNC(=O)[C@H]([C@@H](C)O)NC(=O)[C@H](CCN)NC(=O)[C@H](CCN)NC(=O)[C@H]([C@@H](C)O)NC(=O)[C@@H](Cc2ccccc2)NC(=O)[C@H](CCN)NC1=O)[C@@H](C)O [Compound 10, Nonanoyl-Dab-Thr-Dap-ring(4-10)[Dab-Dab-D-Phe-Thr-Dab-Dab-Thr]] (Nonanoyl-[Dab]T[Dap][Dab][Dab][dF]T[Dab][Dab]T; lactam 4-C) | 0.06 (≈ 0.051 µM) | 0.06 (≈ 0.051 µM) | 0.06 (≈ 0.051 µM) | 0.06 (≈ 0.051 µM) | 0.06 (≈ 0.051 µM) | 0.06 (≈ 0.051 µM) | 0.25 (≈ 0.212 µM) | 0.5 (≈ 0.425 µM) | 350 ± 30.7 (≈ 297 µM)
CC[C@H](C)CCCCC(=O)N[C@@H](CCN)C(=O)N[C@H](C(=O)N[C@H](CCN)C(=O)N[C@H]1CCNC(=O)[C@H]([C@@H](C)O)NC(=O)[C@H](CCN)NC(=O)[C@H](CCN)NC(=O)[C@H]([C@@H](C)O)NC(=O)[C@@H](Cc2ccccc2)NC(=O)[C@H](CCN)NC1=O)[C@@H](C)O [Compound 11, (S)-6-methyloctanoyl-Dab-Thr-D-Dab-ring(4-10)[Dab-Dab-D-Phe-Thr-Dab-Dab-Thr]] (X1-[Dab]T[dDab][Dab][Dab][dF]T[Dab][Dab]T; lactam 4-C) | ≤0.03 | ≤0.03 | ≤0.03 | ≤0.03 | ≤0.03 | ≤0.03 | 1 (≈ 0.839 µM) | 1 (≈ 0.839 µM) | 371 ± 54.6 (≈ 311 µM)
CC(C)CCCCC(=O)N[C@@H](CCN)C(=O)N[C@H](C(=O)N[C@H](CCN)C(=O)N[C@H]1CCNC(=O)[C@H]([C@@H](C)O)NC(=O)[C@H](CCN)NC(=O)[C@H](CCN)NC(=O)[C@H]([C@@H](C)O)NC(=O)[C@@H](Cc2ccccc2)NC(=O)[C@H](CCN)NC1=O)[C@@H](C)O [Compound 12, 6-methylheptanoyl-Dab-Thr-D-Dab-ring(4-10)[Dab-Dab-D-Phe-Thr-Dab-Dab-Thr]] ({Heptanoyl(6-Me)}-[Dab]T[dDab][Dab][Dab][dF]T[Dab][Dab]T; lactam 4-C) | 0.06 (≈ 0.051 µM) | ≤0.03 | ≤0.03 | ≤0.03 | 0.125 (≈ 0.106 µM) | ≤0.03 | 0.5 (≈ 0.425 µM) | 0.5 (≈ 0.425 µM) | > 500
CCCCCCCC(=O)N[C@@H](CCN)C(=O)N[C@H](C(=O)N[C@H](CCN)C(=O)N[C@H]1CCNC(=O)[C@H]([C@@H](C)O)NC(=O)[C@H](CCN)NC(=O)[C@H](CCN)NC(=O)[C@H]([C@@H](C)O)NC(=O)[C@@H](Cc2ccccc2)NC(=O)[C@H](CCN)NC1=O)[C@@H](C)O [Compound 13, Octanoyl-Dab-Thr-D-Dab-ring(4-10)[Dab-Dab-D-Phe-Thr-Dab-Dab-Thr]] (Octanoyl-[Dab]T[dDab][Dab][Dab][dF]T[Dab][Dab]T; lactam 4-C) | ≤0.03 | ≤0.03 | ≤0.03 | ≤0.03 | 0.06 (≈ 0.051 µM) | ≤0.03 | 1 (≈ 0.849 µM) | 1 (≈ 0.849 µM) | > 500
CCCCCCC(=O)N[C@@H](CCN)C(=O)N[C@H](C(=O)N[C@H](CCN)C(=O)N[C@H]1CCNC(=O)[C@H]([C@@H](C)O)NC(=O)[C@H](CCN)NC(=O)[C@H](CCN)NC(=O)[C@H]([C@@H](C)O)NC(=O)[C@@H](Cc2ccccc2)NC(=O)[C@H](CCN)NC1=O)[C@@H](C)O [Compound 14, Heptanoyl-Dab-Thr-D-Dab-ring(4-10)[Dab-Dab-D-Phe-Thr-Dab-Dab-Thr]] (Heptanoyl-[Dab]T[dDab][Dab][Dab][dF]T[Dab][Dab]T; lactam 4-C) | 0.03 (≈ 0.0258 µM) | 0.03 (≈ 0.0258 µM) | 0.03 (≈ 0.0258 µM) | 0.03 (≈ 0.0258 µM) | 0.06 (≈ 0.0516 µM) | 0.03 (≈ 0.0258 µM) | 2 (≈ 1.72 µM) | 2 (≈ 1.72 µM) | > 500
CCCCCCCCC(=O)N[C@@H](CCN)C(=O)N[C@H](C(=O)N[C@H](CCN)C(=O)N[C@H]1CCNC(=O)[C@H]([C@@H](C)O)NC(=O)[C@H](CCN)NC(=O)[C@H](CCN)NC(=O)[C@H]([C@@H](C)O)NC(=O)[C@@H](Cc2ccccc2)NC(=O)[C@H](CCN)NC1=O)[C@@H](C)O [Compound 15, Nonanoyl-Dab-Thr-D-Dab-ring(4-10)[Dab-Dab-D-Phe-Thr-Dab-Dab-Thr]] (Nonanoyl-[Dab]T[dDab][Dab][Dab][dF]T[Dab][Dab]T; lactam 4-C) | 0.06 (≈ 0.0504 µM) | 0.06 (≈ 0.0504 µM) | 0.06 (≈ 0.0504 µM) | 0.06 (≈ 0.0504 µM) | 0.06 (≈ 0.0504 µM) | 0.06 (≈ 0.0504 µM) | 2 (≈ 1.68 µM) | 2 (≈ 1.68 µM) | 320 ± 31.5 (≈ 269 µM)
